Reference: US10568900B1, “Androgen effectors” (priority 2013, dated 2020)
Entries after “also recorded” stand apart in the source; their conditions may differ. Read-outs that look alike come from different tables or passages of the source.

How the values were obtained:
[1] = biological target: T1, human androgen receptor (hAR) (Homo sapiens, UniProt P10275); assay: Human Androgen Receptor (hAR) assay in recombinant yeast strain BJ1991 PGKhAR; format: cell-based
T1 construct: expressed in transfected cells; host or cells: recombinant yeast strain BJ1991 PGKhAR
T1 sequence (P10275 1-920): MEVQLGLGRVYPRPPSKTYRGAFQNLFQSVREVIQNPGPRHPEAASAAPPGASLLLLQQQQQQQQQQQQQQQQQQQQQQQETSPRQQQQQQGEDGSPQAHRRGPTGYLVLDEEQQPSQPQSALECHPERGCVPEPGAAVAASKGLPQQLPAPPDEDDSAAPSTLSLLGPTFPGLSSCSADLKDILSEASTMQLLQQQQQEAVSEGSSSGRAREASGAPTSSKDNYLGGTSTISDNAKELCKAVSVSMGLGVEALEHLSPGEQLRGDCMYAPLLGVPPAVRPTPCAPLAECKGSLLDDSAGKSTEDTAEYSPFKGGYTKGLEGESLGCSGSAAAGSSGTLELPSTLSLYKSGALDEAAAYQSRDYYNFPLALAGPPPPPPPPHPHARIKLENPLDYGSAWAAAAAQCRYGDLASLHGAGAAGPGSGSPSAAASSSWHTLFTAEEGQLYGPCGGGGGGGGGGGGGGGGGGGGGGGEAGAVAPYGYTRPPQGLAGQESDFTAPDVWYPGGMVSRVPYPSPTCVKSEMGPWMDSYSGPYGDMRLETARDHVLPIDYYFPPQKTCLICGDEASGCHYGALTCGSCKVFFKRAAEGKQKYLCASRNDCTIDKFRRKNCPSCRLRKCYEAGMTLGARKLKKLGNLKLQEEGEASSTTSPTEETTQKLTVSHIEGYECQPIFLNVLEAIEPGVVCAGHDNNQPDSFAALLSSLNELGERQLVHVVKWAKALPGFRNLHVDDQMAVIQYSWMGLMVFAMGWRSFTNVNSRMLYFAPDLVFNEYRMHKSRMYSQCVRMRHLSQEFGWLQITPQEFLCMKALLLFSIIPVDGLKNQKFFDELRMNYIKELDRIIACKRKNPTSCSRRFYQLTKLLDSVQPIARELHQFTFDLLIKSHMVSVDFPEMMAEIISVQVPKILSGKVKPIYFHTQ
Description: Human Androgen Receptor Assay (hAR) in recombinant yeast strain BJ1991 PGKhAR which contains the human androgen receptor (hAR) gene and a built-in color-indicator to androgenicity via an androgen response element (ARE) which is linked to a gene encoding beta-galactosidase, which hydrolyses end terminal B-galactopyranosyl residues on a chlorophenol red-B-D-galactopyranoside releasing colored indicator, chlorophenol red. Thus, test solutions turn further red with androgenicity.

androgen receptor (AR) = biological target: T2, androgen receptor (AR) (Rattus norvegicus, UniProt P15207); assay: Androgen Receptor Binding Assay (rat prostatic cytosol), displacement of radiolabeled testosterone
T2 construct: rat prostatic cytosol as a source of androgen receptors; from tissue; host or cells: rat prostate cytosol
T2 sequence (P15207 1-902): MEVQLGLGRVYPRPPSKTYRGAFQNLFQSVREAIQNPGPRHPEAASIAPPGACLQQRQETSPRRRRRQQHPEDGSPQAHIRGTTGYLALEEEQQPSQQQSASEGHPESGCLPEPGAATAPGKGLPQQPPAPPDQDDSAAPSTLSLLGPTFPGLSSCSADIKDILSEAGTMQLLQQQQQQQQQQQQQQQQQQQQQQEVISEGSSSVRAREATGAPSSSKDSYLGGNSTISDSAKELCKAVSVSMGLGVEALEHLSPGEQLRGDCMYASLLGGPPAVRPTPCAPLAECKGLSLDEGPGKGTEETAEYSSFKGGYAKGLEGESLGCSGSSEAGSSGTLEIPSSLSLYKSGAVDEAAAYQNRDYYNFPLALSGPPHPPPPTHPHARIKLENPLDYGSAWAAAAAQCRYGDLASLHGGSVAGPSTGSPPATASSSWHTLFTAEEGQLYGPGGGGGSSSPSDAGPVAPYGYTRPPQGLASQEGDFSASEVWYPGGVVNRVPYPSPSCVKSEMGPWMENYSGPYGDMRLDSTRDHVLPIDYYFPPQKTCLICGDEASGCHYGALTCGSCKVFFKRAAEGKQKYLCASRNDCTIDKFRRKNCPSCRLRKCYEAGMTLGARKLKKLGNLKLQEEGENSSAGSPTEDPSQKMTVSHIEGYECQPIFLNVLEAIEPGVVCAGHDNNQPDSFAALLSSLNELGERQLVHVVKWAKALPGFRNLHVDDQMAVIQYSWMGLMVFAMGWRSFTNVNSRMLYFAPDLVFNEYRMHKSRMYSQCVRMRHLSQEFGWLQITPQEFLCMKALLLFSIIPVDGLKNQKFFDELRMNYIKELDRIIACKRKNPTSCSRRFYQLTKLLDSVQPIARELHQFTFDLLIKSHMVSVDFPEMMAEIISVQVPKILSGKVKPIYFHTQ
Description: The Androgen Receptor Binding Assay in rat prostatic cytosol as a source of androgen receptors identifies chemicals that have the potential to interact with the androgen receptor (AR) in vitro. […] The biological action of androgens is mediated through their interaction with the AR; androgens have no hormonal activity in the absence of a functional AR. Due to a high degree of DNA sequence conservation, substances that bind the AR from rats are presumed to be capable of binding the AR in humans. (Kelce, 1998; Betney, 2003). This screening assay measures the receptor-binding affinity of chemicals by evaluating their ability to displace a bound reference androgen, showing the degree of competition for normal androgen binding and activity, either acting as an agonist or antagonist (which is not discerned by the assay).

5-alpha-reductase = biological target: T3, 5-alpha-reductase (Rattus norvegicus, UniProt P24008); assay: 5-alpha-reductase activity, conversion of testosterone to dihydrotestosterone in microsomal homogenized rat livers; format: biochemical
T3 construct: in microsomal homogenized rat livers; from tissue; host or cells: rat liver microsomes
T3 sequence (P24008 1-259): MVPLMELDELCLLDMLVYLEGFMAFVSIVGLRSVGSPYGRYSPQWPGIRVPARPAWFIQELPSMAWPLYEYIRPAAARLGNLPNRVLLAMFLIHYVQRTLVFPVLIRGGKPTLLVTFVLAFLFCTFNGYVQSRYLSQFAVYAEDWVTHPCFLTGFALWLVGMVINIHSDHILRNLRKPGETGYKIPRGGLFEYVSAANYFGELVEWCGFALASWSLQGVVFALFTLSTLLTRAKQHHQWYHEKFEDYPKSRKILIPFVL
Description: Finasteride (MK906 or Proscar) was used as the positive control inhibitor.

ERα = biological target: T4, ERα (Homo sapiens, UniProt P03372); conditions: cited from earlier work
T4 construct: host or cells: yeast cells (cited work)
T4 sequence (P03372 1-595): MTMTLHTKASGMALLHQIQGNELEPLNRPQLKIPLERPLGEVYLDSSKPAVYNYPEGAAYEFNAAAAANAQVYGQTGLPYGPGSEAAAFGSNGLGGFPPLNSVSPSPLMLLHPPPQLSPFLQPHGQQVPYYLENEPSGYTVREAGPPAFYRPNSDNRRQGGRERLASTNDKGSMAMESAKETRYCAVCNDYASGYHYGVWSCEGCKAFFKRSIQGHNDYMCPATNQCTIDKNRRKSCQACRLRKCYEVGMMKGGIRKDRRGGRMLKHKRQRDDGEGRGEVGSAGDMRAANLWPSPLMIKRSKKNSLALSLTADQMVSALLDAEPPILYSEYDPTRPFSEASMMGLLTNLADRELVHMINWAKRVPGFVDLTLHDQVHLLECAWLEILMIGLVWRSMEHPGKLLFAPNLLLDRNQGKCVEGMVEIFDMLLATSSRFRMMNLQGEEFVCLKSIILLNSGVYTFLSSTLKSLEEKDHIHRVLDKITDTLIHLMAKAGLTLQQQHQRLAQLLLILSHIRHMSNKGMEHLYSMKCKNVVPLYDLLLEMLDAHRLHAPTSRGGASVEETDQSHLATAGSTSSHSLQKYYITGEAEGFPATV

ERβ = biological target: T5, ERβ (Homo sapiens, UniProt Q92731); conditions: cited from earlier work
T5 construct: host or cells: yeast cells (cited work)
T5 sequence (Q92731 whole entry, species assumed): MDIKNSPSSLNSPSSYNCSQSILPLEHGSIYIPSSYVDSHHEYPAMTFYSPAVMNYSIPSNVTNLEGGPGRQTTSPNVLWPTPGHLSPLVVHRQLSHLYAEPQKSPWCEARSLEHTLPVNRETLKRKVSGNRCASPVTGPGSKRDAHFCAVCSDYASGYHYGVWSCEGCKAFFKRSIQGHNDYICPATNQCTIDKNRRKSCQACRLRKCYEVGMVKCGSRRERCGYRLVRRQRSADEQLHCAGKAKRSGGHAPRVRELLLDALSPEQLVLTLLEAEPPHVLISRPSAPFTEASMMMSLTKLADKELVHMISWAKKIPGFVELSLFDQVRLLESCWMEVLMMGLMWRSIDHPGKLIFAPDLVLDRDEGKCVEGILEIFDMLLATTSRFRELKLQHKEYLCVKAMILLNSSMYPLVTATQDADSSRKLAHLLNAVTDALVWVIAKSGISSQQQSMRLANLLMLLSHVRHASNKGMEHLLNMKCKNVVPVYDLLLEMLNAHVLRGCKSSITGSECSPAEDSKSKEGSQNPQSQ

[2] = cited from earlier work
yeast cells = conditions: cited from earlier work
[3] = rat liver microsomes, read-out: *50% Inhibition (converted)
[4] = tested at 500 μg/ml, rat prostatic cytosol

CC1(C)C=Cc2c(O)ccc(C3=Cc4ccc(O)cc4OC3)c2O1 [#1 Glabrene, Glabrene]
*hAG (agonist) ([1]; tested at 25 μg/ml): Inactive | *hAT (antagonist) ([1]; tested at 25 μg/ml): Inactive | inhibition at 125 µg/mL (androgen receptor (AR); tested at 125 μg/ml, rat prostatic cytosol, read-out: *Specific Binding % Inhibition): 21% | 5-alpha-reductase inhibition, in words (5-alpha-reductase): significant 5ARI activity; also recorded: potent dihydrotestosterone reductase inhibitors | 5-alpha-reductase inhibition, in words (5-alpha-reductase; listed as #1): interfere with the activity of 5-alpha-reductase | IC50 (5-alpha-reductase; read-out: IC50 (5ARI) (converted)): 15.5 µM

CC1(C)C=Cc2c(ccc3c2OC[C@@H](c2ccc(O)cc2O)C3)O1 [#4 Glabridin, Glabridin]
*hAG (agonist) ([1]; tested at 5 μg/ml): Inactive | *hAT (antagonist) ([1]; tested at 5 μg/ml): Inactive | androgen receptor binding / interference with testosterone binding, in words (androgen receptor (AR)): does not interfere with normal testosterone to androgen receptor binding | inhibition at 500 µg/mL (androgen receptor (AR); tested at 500 μg/ml, rat prostatic cytosol, read-out: *Specific Binding % Inhibition): 0% | 5-alpha-reductase inhibition, in words (5-alpha-reductase): significant 5ARI activity; also recorded: potent dihydrotestosterone reductase inhibitors | 5-alpha-reductase inhibition, in words (5-alpha-reductase; listed as #4): interfere with the activity of 5-alpha-reductase | IC50 (5-alpha-reductase; [3]): 89.4 µM | estrogenic response (agonism), in words (ERα; 1×10^−7 to 1×10^−4 M): does not exert any estrogenic response | inhibition of the E2 response (ERα; at 6×10^−6 M, without being toxic towards yeast cells): ~80% | ERα antagonism, in words (ERα): ERα-selective antagonist | reduction of estrogenic E2 (ERα): 80% | estrogenic response (agonism), in words (ERβ; 1×10^−7 to 1×10^−4 M): does not exert any estrogenic response | ERβ antagonism, in words (ERβ): did not have antagonistic properties | solubility in water, in words [2]: insoluble in water | concentration toxic to yeast cells (yeast cells): above 1×10^−4 M

C=CC(C)(C)c1cc(/C=C/C(=O)c2ccc(O)cc2)c(OC)cc1O [#5 Licochalcone A, Licochalcone A]
*hAG (agonist) ([1]; tested at 5 μg/ml): Inactive | *hAT (antagonist) ([1]; tested at 5 μg/ml): Inactive | *Specific Binding % Inhibition (androgen receptor (AR); [4]): 21% | 5-alpha-reductase inhibition, in words (5-alpha-reductase; listed as #5): interfere with the activity of 5-alpha-reductase | 5-alpha-reductase inhibition, in words (5-alpha-reductase; listed as Licochalcone A): potent dihydrotestosterone reductase inhibitors | 5-alpha-reductase inhibition, in words (5-alpha-reductase; listed as licochalcone A): significant 5ARI activity | *50% Inhibition (5-alpha-reductase; rat liver microsomes): 7 µg/mL

C[C@@H](CC[C@@]1(O)O[C@H]2C[C@H]3[C@@H]4CC=C5C[C@@H](O[C@@H]6O[C@H](CO)[C@@H](O)[C@H](O[C@@H]7O[C@H](CO)[C@@H](O)[C@H](O)[C@H]7O)[C@H]6O[C@@H]6O[C@@H](C)[C@H](O)[C@@H](O)[C@H]6O)CC[C@]5(C)[C@H]4CC[C@]3(C)[C@H]2[C@@H]1C)CO[C@@H]1O[C@H](CO)[C@@H](O)[C@H](O)[C@H]1O [#9 Protogracillin, Protogracillin]
hAR assay activity, in words [1]: testosterone agonist activity | receptor affinity relative to cyproterone's binding affinity [1]: 1/200 | *hAG (agonist) ([1]; tested at 100 μg/ml): Active (2) | *hAT (antagonist) ([1]; tested at 100 μg/ml): Inactive | androgen receptor binding / interference with testosterone binding, in words (androgen receptor (AR); listed as Protogracillin): does not interfere with normal testosterone binding to receptor | androgen receptor binding / interference with testosterone binding, in words (androgen receptor (AR); listed as protogracillin): did not interfere with regular testosterone receptor binding | *Specific Binding % Inhibition (androgen receptor (AR); [4]): 0% | 5-alpha-reductase inhibition, in words (5-alpha-reductase): did not inhibit 5AR

CC(C)(C)NC(=O)[C@H]1CC[C@H]2[C@@H]3CC[C@H]4NC(=O)C=C[C@]4(C)[C@H]3CC[C@]12C [Finasteride Proscar Control, Finasteride, reference compound]
IC50 (5-alpha-reductase; positive control, read-out: IC50 (converted)): ~0.188 µM | IC50 (5-alpha-reductase; [3]): 0.188 µM

CC1=CCC(C(C)(C)O)CC1 (stereo not drawn) [alpha-terpineol]
5-alpha-reductase inhibition, in words (5-alpha-reductase): significant 5ARI activity

Leucoanthocyanidin [#6 Leucoanthocyanidin]
*hAG (agonist) ([1]; tested at 500 μg/ml): Clear | *hAT (antagonist) ([1]; tested at 500 μg/ml): Clear | *Specific Binding % Inhibition (androgen receptor (AR); [4]): 28% | 5-alpha-reductase inhibition, in words (5-alpha-reductase): significant 5ARI activity | 5-alpha-reductase inhibition, in words (5-alpha-reductase; listed as #6): interfere with the activity of 5-alpha-reductase | *50% Inhibition (5-alpha-reductase; rat liver microsomes): 30 µg/mL
